In ChEMBL document CHEMBL5390316, “Enniatin A Analogues as Novel Hsp90 Inhibitors that Modulate Triple-Negative Breast Cancer” (ACS Med Chem Lett, 2023):
Values belong to the compound of their own block, whether it stands above or below them. Activity calls are given as the source filed them. No cut-off for these calls is given here.

Assays:
Hs-578T [1] = test: Antiproliferative activity against human Hs-578T cells assessed as reduction in cell viability incubated for 48 hrs by MTT assay; assay type: functional, cell-based
[2] = target: Heat shock protein HSP90 (Homo sapiens) (UniProt P07900+P08238); test: Inhibition of HSP90 in human Hs-578T cells assessed as degradation of CDK4 at 5 uM incubated for 24 hrs by Western blot analysis; assay type: cell-based
Hs-578T [3] = test: Induction of heat shock response in human Hs-578T cells assessed as change in Hsp70 level at 5 uM incubated for 24 hrs by Western blot analysis; assay type: functional, cell-based
4T1 [4] = test: Inhibition of HSP90 in mouse 4T1 cells assessed as reduction in CDK4 level at 7.5 uM incubated for 24 hrs by Western blot analysis; assay type: cell-based
E0771 [5] = test: In vivo induction of heat shock response in mouse E0771 cells implanted in C57BL/6 mouse assessed as increased Hsp40 level at 10 mg/kg, ip administered every 48 hrs for 3 weeks by Western blot analysis; assay type: functional, organism-based
E0771 [6] = test: In vivo inhibition of HSP90 in mouse E0771 cells implanted in C57BL/6 mouse assessed as change in p-Akt/Akt ratio at 10 mg/kg, ip administered every 48 hrs for 3 weeks by Western blot analysis; assay type: functional, organism-based
E0771 [7] = test: In vivo inhibition of HSP90 in mouse E0771 cells implanted in C57BL/6 mouse assessed as change in CDK4 at 10 mg/kg, ip administered every 48 hrs for 3 weeks by Western blot analysis; assay type: functional, organism-based
EO771 [8] = test: Inhibition of HSP90 in mouse EO771 cells assessed as change in ILK level at 7.5 uM incubated for 24 hrs by Western blot analysis; assay type: cell-based
E0771 [9] = test: In vivo inhibition of HSP90 in mouse E0771 cells implanted in C57BL/6 mouse assessed as change in ILK at 10 mg/kg, ip administered every 48 hrs for 3 weeks by Western blot analysis; assay type: functional, organism-based
E0771 [10] = test: In vivo induction of heat shock response in mouse E0771 cells implanted in C57BL/6 mouse assessed as increased Hsp70 level at 10 mg/kg, ip administered every 48 hrs for 3 weeks by Western blot analysis; assay type: functional, organism-based
E0771 [11] = test: In vivo inhibition of HSP90 in mouse E0771 cells implanted in C57BL/6 mouse at 10 mg/kg, ip administered every 48 hrs for 3 weeks by Western blot analysis; assay type: functional, organism-based
4T1 [12] = test: Inhibition of HSP90 in mouse 4T1 cells assessed as reduction in ILK level at 7.5 uM incubated for 24 hrs by Western blot analysis; assay type: cell-based
EO771 [13] = test: Inhibition of HSP90 in mouse EO771 cells assessed as change in CDK4 level at 7.5 uM incubated for 24 hrs by Western blot analysis; assay type: cell-based
Hs-578T [14] = test: Induction of heat shock response in human Hs-578T cells assessed as change in Hsp40 level at 5 uM incubated for 24 hrs by Western blot analysis; assay type: functional, cell-based
EO771 [15] = test: Antiproliferative activity against mouse E0771 cells implanted in C57BL/6 mouse assessed as inhibition of tumor volume at 10 mg/kg, ip administered every 48 hrs for 3 weeks; assay type: functional, organism-based
EO771 [16] = test: Induction of heat shock response in mouse EO771 cells assessed as change in Hsp70 level at 7.5 uM incubated for 24 hrs by Western blot analysis; assay type: functional, cell-based
4T1 [17] = test: Induction of heat shock response in mouse 4T1 cells assessed as change in Hsp70 level at 7.5 uM incubated for 24 hrs by Western blot analysis; assay type: functional, cell-based
Hs-578T [18] = test: Induction of heat shock response in human Hs-578T cells assessed as reduction in Hsp40 level at 1 uM incubated for 24 hrs by Western blot analysis; assay type: functional, cell-based
Hs-578T [19] = test: Induction of heat shock response in human Hs-578T cells assessed as reduction in Hsp70 level at 1 uM incubated for 24 hrs by Western blot analysis; assay type: functional, cell-based

Structure (SMILES): CC[C@H](C)[C@H]1C(=O)O[C@H](C(C)C)C(=O)N(C)[C@@H]([C@@H](C)CC)C(=O)O[C@H](C(C)C)C(=O)N(C)[C@@H]([C@@H](C)CC)C(=O)OCC(=O)N1C
IC50 (Hs-578T [1]): 16 µM

inhibition [2]: Active
Structure (SMILES): CC[C@H](C)[C@H]1C(=O)O[C@H](C(C)C)C(=O)N(C)[C@@H]([C@@H](C)CC)C(=O)O[C@H](C(C)C)C(=O)N(C)[C@@H]([C@@H](C)CC)C(=O)O[C@H](Cc2ccccc2)C(=O)N1C
Activity (Hs-578T [3]): inactive | inhibition (4T1 [4]): Active | Activity (E0771 [5]): Active | IC50 (Hs-578T [1]): 4.36 µM | inhibition (E0771 [6]): Active | inhibition (E0771 [7]): Active | inhibition (EO771 [8]): inactive | inhibition (E0771 [9]): Active | Activity (E0771 [10]): Active | inhibition (E0771 [11]): inactive | inhibition (4T1 [12]): Active | inhibition (EO771 [13]): inactive | Activity (Hs-578T [14]): inactive | Activity (EO771 [15]): Active | Activity (EO771 [16]): inactive | Activity (4T1 [17]): inactive

inhibition [2]: Active
Structure (SMILES): CC[C@H](C)[C@H]1C(=O)O[C@H](C(C)C)C(=O)N(C)[C@@H](Cc2ccccc2)C(=O)O[C@H](C(C)C)C(=O)N(C)[C@@H]([C@@H](C)CC)C(=O)O[C@H](C(C)C)C(=O)N1C
Activity (Hs-578T [3]): inactive | IC50 (Hs-578T [1]): 8 µM | Activity (Hs-578T [14]): inactive

Structure (SMILES): CC[C@H](C)[C@H]1C(=O)O[C@H](C(C)C)C(=O)N(C)[C@@H]([C@@H](C)CC)C(=O)O[C@H](C(C)C)C(=O)N(C)[C@@H]([C@@H](C)CC)C(=O)O[C@H](C(C)C)C(=O)N1C
inhibition [2]: Active | Activity (Hs-578T [3]): inactive | inhibition (4T1 [4]): Active | IC50 (Hs-578T [1]): 7.39 µM | inhibition (E0771 [6]): Active | inhibition (E0771 [7]): Active | inhibition (EO771 [8]): inactive | inhibition (E0771 [9]): Active | inhibition (E0771 [11]): inactive | inhibition (4T1 [12]): Active | inhibition (EO771 [13]): inactive | Activity (Hs-578T [14]): inactive | Activity (EO771 [15]): Active | Activity (EO771 [16]): inactive | Activity (4T1 [17]): inactive

Structure (SMILES): CC[C@H](C)[C@H]1C(=O)O[C@H](C(C)C)C(=O)N(C)[C@@H]([C@@H](C)CC)C(=O)O[C@H](C(C)C)C(=O)N(C)[C@@H]([C@@H](C)CC)C(=O)O[C@H](CCc2ccccc2)C(=O)N1C
IC50 (Hs-578T [1]): 8.1 µM

Structure (SMILES): CC[C@H](C)[C@H]1C(=O)O[C@H](C(C)C)C(=O)N(C)[C@@H]([C@@H](C)CC)C(=O)O[C@H](C(C)C)C(=O)N(C)CC(=O)O[C@H](C(C)C)C(=O)N1C
IC50 (Hs-578T [1]): 16.7 µM

Structure (SMILES): C=CCNC1=C2C[C@@H](C)C[C@H](OC)[C@H](O)[C@@H](C)/C=C(\C)[C@H](OC(N)=O)[C@@H](OC)/C=C\C=C(/C)C(=O)NC(=CC1=O)C2=O
Activity (Hs-578T [18]): Active | Activity (Hs-578T [19]): Active

Structure (SMILES): CC[C@H](C)[C@H]1C(=O)O[C@H](C(C)C)C(=O)N(C)[C@@H](C)C(=O)O[C@H](C(C)C)C(=O)N(C)[C@@H]([C@@H](C)CC)C(=O)O[C@H](C(C)C)C(=O)N1C
IC50 (Hs-578T [1]): 16.2 µM

Structure (SMILES): CC[C@H](C)[C@H]1C(=O)O[C@H](C(C)C)C(=O)N(C)[C@@H]([C@@H](C)CC)C(=O)O[C@H](C(C)C)C(=O)N(C)[C@@H]([C@@H](C)CC)C(=O)O[C@H](C)C(=O)N1C
IC50 (Hs-578T [1]): 13 µM

Structure (SMILES): CC[C@H](C)[C@H]1C(=O)O[C@H](C(C)C)C(=O)N(C)[C@@H]([C@@H](C)CC)C(=O)O[C@H](C(C)C)C(=O)N(C)[C@@H]([C@@H](C)CC)C(=O)O[C@H](Cc2ccc(C)cc2)C(=O)N1C
IC50 (Hs-578T [1]): 8.34 µM

Structure (SMILES): CC[C@H](C)[C@H]1C(=O)O[C@H](C(C)C)C(=O)N(C)[C@@H]([C@@H](C)CC)C(=O)O[C@H](C(C)C)C(=O)N(C)[C@@H]([C@@H](C)CC)C(=O)O[C@H](Cc2ccc3ccccc3c2)C(=O)N1C
IC50 (Hs-578T [1]): 8 µM
